The values below come from patent US11332450B2, “Isoxazole as FXR receptor agonists” (Bar Pharmaceuticals Societa' A Responsabilita' Limitata, priority 2018, dated 2022).

Data set [1] has as its system SHP mRNA. Description: SHP mRNA expression in HepG2 cells (RT-PCR). Type of data set: cell-based, human. How it is done: RNA isolation and RT-PCR. HepG2 cells were plated at the density of 1×10^6 cells/flask in T25 flask. […] Total RNA was isolated from HepG2 cells or liver tissue using the TRIzol reagent according to the manufacturer's specifications (Invitrogen). One microgram of purified RNA was treated with DNase-I and reverse transcribed with QuantiTect Reverse Transcription Kit (Qiagen). For Real Time PCR, 10 ng template was dissolved in 25 μL containing 200 nmol/L of each primer and 12.5 μL of 2×SYBR FAST Universal ready mix (Invitrogen). All reactions were performed in triplicate, and the thermal cycling conditions were as follows: 2 min at 95° C., followed by 40 cycles of 95° C. for 20 s and 60° C. for 30 s in StepOnePlus (Applied Biosystems). The relative mRNA expression was calculated in accord to the Ct method. Forward and reverse primer sequences were the following: human GAPDH: [NT] (SEQ ID: 1) and [NT] (SEQ ID: 2); human SHP: [NT] (SEQ ID: 3) and [NT] (SEQ ID: 4); mouse GAPDH, [NT] (SEQ ID: 5) and [NT] (SEQ ID: 6); mouse SHP [NT] (SEQ ID: 7) and [NT] (SEQ ID: 8); mouse FXR: [NT] (SEQ ID: 9) and [NT] (SEQ ID: 10); mouse BSEP: [NT] (SEQ ID: 11) and [NT] (SEQ ID: 12).

In data set [2] the test system is liver SHP mRNA. Description: Liver SHP mRNA expression in mice after administration of compound. The data set is classed as in vivo, mouse. The following applies: administered per os, 10 mg/kg daily for 3 days. How it is done: (§1) Total RNA was isolated from HepG2 cells or liver tissue using the TRIzol reagent according to the manufacturer's specifications (Invitrogen). One microgram of purified RNA was treated with DNase-I and reverse transcribed with QuantiTect Reverse Transcription Kit (Qiagen). For Real Time PCR, 10 ng template was dissolved in 25 μL containing 200 nmol/L of each primer and 12.5 μL of 2×SYBR FAST Universal ready mix (Invitrogen). All reactions were performed in triplicate, and the thermal cycling conditions were as follows: 2 min at 95° C., followed by 40 cycles of 95° C. for 20 s and 60° C. for 30 s in StepOnePlus (Applied Biosystems). The relative mRNA expression was calculated in accord to the Ct method. Forward and reverse primer sequences were the following: human GAPDH: [NT] (SEQ ID: 1) and [NT] (SEQ ID: 2); human SHP: [NT] (SEQ ID: 3) and [NT] (SEQ ID: 4); mouse GAPDH, [NT] (SEQ ID: 5) and [NT] (SEQ ID: 6); mouse SHP [NT] (SEQ ID: 7) and [NT] (SEQ ID: 8); mouse FXR: [NT] (SEQ ID: 9) and [NT] (SEQ ID: 10); mouse BSEP: [NT] (SEQ ID: 11) and [NT] (SEQ ID: 12). C57BL/6N male mice were from The Jackson's Laboratory. […] The general health of the animals was monitored daily by the Veterinarian in the animal facility. […]

For data set [3], the system named is liver BSEP mRNA. Description: Liver BSEP mRNA expression in mice after administration of compound. Type of data set: in vivo, mouse. As to conditions: administered per os, 10 mg/kg daily for 3 days. The procedure: as §1
Data set [4] in a line: Microsomal stability in mouse liver microsomes. Type of data set: in vitro ADME. The following applies: male CD-1 mouse liver microsomes, 1 μM compound, 37° C. The procedure: Male mouse (CD-1) liver microsomes (Sigma-Aldrich) were used. All incubations were performed in duplicate in a shaking water bath at 37° C. […] Aliquots were removed at 0, 5, 10, 20, 30, and 40 min after microsome addition and the reaction was stopped by adding 200 μL of ice-cold acetonitrile. After 2 h, the samples were centrifuged for 10 min at 10000 rpm, and the supernatants were transferred in matrix tubes for LC-MS/MS analysis. Propranolol, known as a high hepatic clearance drug in rodents, was used as a quality-control compound for the microsomal incubations. The slope of the linear regression of the curve obtained reporting the natural logarithm of compound area versus incubation time (−k) was used in the conversion to in vitro t1/2 values by t1/2=−ln(2)/k. In vitro intrinsic clearance (CLint expressed as μL/min/mg) was calculated according to the following formula: Clint=volume of reaction (μL)/t1/2 (min)/protein of liver microsomes (mg).
For orientation: Microsomes from liver hold many membrane-bound enzymes, among them those of drug oxidation.

For data set [5] the following is noted: rats, oral administration; cited from earlier work.
The conditions of data set [6]: ascribed to the stilbene moiety; cited from earlier work.

For `CC(C)c1onc(-c2c(Cl)cccc2Cl)c1COc1ccc(COc2ccc(C(=O)O)cc2)cc1` [BAR2109, 4-((4-((3-(2,6-dichlorophenyl)-5-isopropylisoxazol-4-yl)methoxy)benzyl)oxy)benzoic Acid], in data set [1] (5 μM concentration, 18 h), the “SHP mRNA expression induction” value is on record as 6.8 times. For the same compound, in data set [2], the “liver SHP mRNA expression” value is given as “inducing”. Also, the “liver BSEP mRNA expression” value in data set [3] is listed as “inducing”.

As for `CC(C)c1onc(-c2c(Cl)cccc2Cl)c1COc1ccc(COc2cccc(C(=O)O)c2)cc1` [BAR2123, 3-((4-((3-(2,6-dichlorophenyl)-5-isopropylisoxazol-4-yl)methoxy)benzyl)oxy)benzoic Acid], the “SHP mRNA expression induction” value in data set [1] (5 μM concentration, 18 h) is 6.2 times.

As for `CC(C)c1onc(-c2c(Cl)cccc2Cl)c1COc1ccc(/C=C/c2cccc(C(=O)O)c2)c(Cl)c1` [GW4064], in data set [4], the Clint came out at 56 µL/min/mg and the “t1/2” value was 41 min. Also, the “SHP mRNA expression induction” value in data set [1] (reference compound at 10 μM concentration) is reported as 4.2 times. In data set [5], the intestinal absorption is recorded as less than 10% and the terminal half-life result is “short”. The UV light stability result in data set [6] is reported as “UV light instability”.
